Measurements as given in patent publication US20080254480A1, “MICROCYTOXICITY ASSAY BY PRE-LABELING TARGET CELLS” (University of Pittsburgh - Of the Commonwealth System of …, priority 2007, published 2008).

Assays:
BT-20 tumor cells = assay: BrdU labeling of cell nuclear DNA of target cells in microwells of Tarasaki plates; assay type: cell-based, human; details: 5 μM of BrdU, co-incubated for 24 hours
Description: FIG. 2. Graph depicting BrdU concentration versus incubation period for labeling of target cells in microwells of Tarasaki plates. BT-20 tumor cells (250/microwell) were seeded in the miniplates and incubated for 24 hours. Various concentrations of BrdU then were added to the microwells containing adherent tumor cells, and the incubation was continued for various periods of time, as indicated. After this labeling, the adherent tumor cells were fixed and stained, with an isotype-matched control or an anti-BrdU mAb, and then visually analyzed. Each point on the figure represents a mean value of a triplicate. SD was less than 10% of the mean values.
BrdU-labeling of target cells in microwells. Suspensions of tumor target cells were prepared from their adherent monolayers, as described above. Target cells were resuspended in tissue culture medium (e.g., RPMI-1640 supplemented with 10% FCS) in an adequate concentration, to contain 100 to 500 cells per 10 μl. BrdU solution was added to this cell suspension, to get its final concentration of 5 μM. In some experiments, to determine the optimal labeling conditions, the concentration of BrdU was varied. […]

target cells = assay: Functional properties of BrdU labeled target cells (viability, proliferation, TNF family receptor expression); assay type: cell-based; details: trypan blue dye exclusion; increase of cell numbers in culture; flow cytometry
From the text: In order to determine whether BrdU labeling of cell nuclear DNA affects cellular functions, the inventor examined viability (by trypan blue dye exclusion assay) and proliferation (by evaluation of increase of cell numbers in culture) of target cells, after they were labeled with the DNA metabolic label. In addition, expression of the cell membrane-bound TNF family receptors involved in apoptosis mediated by immune effector cells, such as TNFR1, TNFR2, Fas and LT-βR, was investigated using flow cytometry.

SMILES: O=c1[nH]c(=O)n([C@H]2C[C@H](O)[C@@H](CO)O2)cc1Br [BrdU, 5-bromo-2′-deoxyuridine]
- strong and uniformed labeling of nuclei (BT-20 tumor cells): 90%
- effect of BrdU labeling on cellular functions tested (viability, proliferation, expression of TNFR1, TNFR2, Fas and LT-βR) (target cells): no significant effect
